The source of these data is paper PMC12863195 (2026).

For experiment [1], the system named is Split Ade aptamer – 3nt (Ga/Ha; d1/c/t1+d2/c'/t2) (DNA, aptamer) AGGGTGGTGGCGAACTGCGGAGGAAGGT/ACCTGGGGGAGTATGATCGCCTAGGTTGGGT
In words: stated; ADA-driven loss of thrombin inhibition. As to conditions: adenosine 1.25-1.8 mM converted by ADA.

The test system of experiment [2] is R1 (MG RNA aptamer) (RNA, aptamer) GGAUCCCGACUGGCGAGAGCCAGGUAACGAAUGGAUCC
In words: fluorescence (ex 632 nm, em 650 nm). As to conditions: Mg2+ 20 mM (MgCl2); 1×RNAPol reaction buffer, 5 mM DTT, 2 µM MG, 35 °C, during transcription.

Experiment [3] deals with Split Ade aptamer – 3nt (Ga/Ha; d1/c/t1+d2/c'/t2) (DNA, aptamer) AGGGTGGTGGCGAACTGCGGAGGAAGGT/ACCTGGGGGAGTATGATCGCCTAGGTTGGGT
In words: ITC. As to conditions: Mg2+ 40 mM (MgCl2); 40 mM Tris acetate pH 7.9, 25 °C; one set of sites fit.

The subject of experiment [4] is Split Ade aptamer – 0nt (d1/t1+d2/t2) (DNA, aptamer) AGGGTGGTGGCGTGCGGAGGAAGGT/ACCTGGGGGAGTATCGCCTAGGTTGGGT
In words: ITC. The following applies: Mg2+ 40 mM (MgCl2); 40 mM Tris acetate pH 7.9, 25 °C; one set of sites fit.

In experiment [5] the test system is Na/Ta/Pa (DNA, aptamer) ACCTGGGGGAGTATTAATACGACTCACTATAGGGTTCTCCTCTGCGTTGTTGTTTG/CAAACAACAACGCAGAGGAGAACCCTATAGTGAGTCG/TATTATGCGGAGGAAGGT
Briefly: transcription activation, F/Q strand displacement fluorescence. The following applies: Mg2+ 20 mM (MgCl2); 1×RNAPol reaction buffer, 0.2 µM strands, 0.125-2 mM Ade, 33 °C.

Experiment [6] relates to Split Mel aptamer – 4nt (DNA, aptamer) GCACACCGATGGCGGTCCTGTAGGT/ACCTTTAGGGGGTGTGC
In words: ITC. The following applies: Mg2+ 40 mM (MgCl2); 20 mM Tris acetate pH 7.9, 25 °C; one set of sites fit.

The test system of experiment [7] is Split Mel aptamer – 0nt (DNA, aptamer) GCACACCGATGGCGGTCCTGT/TTAGGGGGTGTGC
Briefly: ITC. The following applies: Mg2+ 40 mM (MgCl2); 20 mM Tris acetate pH 7.9, 25 °C; poorly defined fit (ΔH -335 ±751 kJ/mol).

For experiment [8], the system named is Dm/Em (DNA, aptamer) CTGTTCAGCGATGCACACCGATGGCGGTCCTGTAGGT/ACCTTTAGGGGGTGTGCCACCCATGTTCCTGA
In words: DNAzyme cleavage of FAM/BHQ1 substrate, fluorescence. The following applies: Mg2+ 40 mM (MgCl2); apparent; 20 mM Tris acetate pH 7.9, 1 µM each strand, 1 µM substrate S, BSA.

Experiment [9] concerns Nm/Tm/Pm (DNA, aptamer) TAATACGACTCACTATAGGGATCCCGACTGGCGAGAGCCAGGTAACGAATGGATCC/GGATCCATTCGTTACCTGGCTCTCGCCAGTCGGGATCCCTATAGTGAGTCTTAGGGGGTGTGC/GCACACCGATGGCGGTCCTGTGTATTA
Briefly: transcription activation, MG aptamer fluorescence. The following applies: Mg2+ 20 mM (MgCl2); 1×RNAPol reaction buffer, 0.2 µM strands, 0.125-2 mM Mel, 35 °C.

The test system of experiment [10] is Gm/Hm (DNA, aptamer) AGGGTGGTGGCGAAAGCACACCGATGGCGGTCCTGTAGGT/ACCTTTAGGGGGTGTGCAAACGCCTAGGTTGGGT
In words: thrombin coagulation inhibition, light scattering. The following applies: 1 µM Gm/Hm, 5 nM thrombin, 10 mg/ml fibrinogen, 10-1000 µM Mel, 25 °C.

In experiment [11] the test system is Intact Mel aptamer (DNA, aptamer) GCACACCGATGGCGGTCCTGTTTAGGGGGTGTGC
Briefly: ITC. The following applies: Mg2+ 40 mM (MgCl2); 20 mM Tris acetate pH 7.9, 25 °C; one set of sites fit.

As a reminder, the Kd is a measure of binding affinity in units of concentration.

In the case of `O=c1[nH]cnc2c1ncn2[C@@H]1O[C@H](CO)[C@@H](O)[C@H]1O`, the binding result in [1] is reported as “no”.

On to `CN(C)c1ccc(C(=C2C=CC(=[N+](C)C)C=C2)c2ccccc2)cc1`, for which the binding entry in [2] is “yes”.

In the case of `Nc1ncnc2c1ncn2[C@@H]1O[C@H](CO)[C@@H](O)[C@H]1O`, the Kd in experiment [3] was 7.28 ± 0.82 µM; in [4] it was 14.1 ± 1.3 µM. In experiment [5], the binding result was “yes”.

Consider `Nc1nc(N)nc(N)n1`, for which the Kd in [6] worked out at 0.890 ± 0.123 µM; in experiment [7] it was 11.1 ± 2.09 µM; in experiment [11] it was 0.800 ± 0.139 µM. Besides, the K0.5 in experiment [8] was 162 ± 4.8 µM. Besides, the binding result in [9] and in [10] was “yes” throughout.
